Values quoted from earlier work as cited in patent publication US20110305747A1, “COMBINATION OF DAPSONE WITH OTHER ANTI-ACNE AGENTS” (ALLERGAN, INC., priority 2009, published 2011).
In brackets after ≈: the same amount, converted by molar mass.

Tests used:
spontaneous comedones = settings: Rhino mouse containing a high density of spontaneous comedones (Allec et al, 1997)
[1] = tested on: CRABPII (cellular retinol-binding protein II)

Row | Binding to CRABPII [1] | mean Cmax of adapalene (0.3% adapalene gel on face, chest and back, approx. 2 mg/cm2, Day 10 of treatment, 15 of 16 patients quantifiable (LOQ=0.1 ng/mL)) [ng/mL] | Mean AUC0-24hr (0.3% adapalene gel, approx. 2 mg/cm2, Day 10, 15 of the 16 patients) [ng·h/mL] | Terminal apparent half-life, mean (0.3% adapalene gel, 15 of 16 patients) [h] | Detection in plasma 72 hours after the last application (0.3% adapalene gel, all but one subject) | MIC90 against P. acnes (P. acnes) [µg/mL] | SMILES | Comedolytic activity (spontaneous comedones)
1 | does not bind | 0.553 ± 0.466 | 8.37 ± 8.46 | 17.2 ± 10.2 | not detected | – | COc1ccc(-c2ccc3cc(C(=O)O)ccc3c2)cc1C12CC3CC(CC(C3)C1)C2 [adapalene] | comedolytic activity
2 | – | – | – | – | – | 8 (≈ 32.2 µM) | Nc1ccc(S(=O)(=O)c2ccc(N)cc2)cc1 [dapsone] | –
